Assay: Functional Dkk1-LRP5-TCF-Luciferase Assay in U2OS Cells (table columns: A=MAX FOLD Induction/DMSO CONTROL; B=fold induction @ 2.0 uM; C=fold induction @ 20.0 uM)
Format: cell-based, Human
Details: Homo sapiens, U2OS; for fold induction at 2 µM: 2.0 uM compound; for fold induction at 20 µM: 20.0 uM compound
Description: Biological Evaluation—Functional Dkk1-LRP5-TCF-Luciferase Assay in U2OS Cells
U2OS Human Bone derived cells (Osteosarcoma) are grown in McCoy's 5A Medium (Modified), with L-glutamine (GIBCO Cat No. 16600-082)+1% Pen-Strep+5% FBS) plated at 1×10^7 cells/T175 cm flask. The next day, the cells are co-transfected overnight with the following plasmids: (a) Test reporter (16×TCF-TK-FireFly-Luci), (b) Internal Control Reporter (TK-Renilla-Luci), (c) Wnt3a and (d) Dkk1. GIBCO's Lipofectamine 2000 and OptiMEM were used for the transfection. After a minimum of 4 hr of transfection at 37° C., the plasmid-transfected cells are trypsinized, counted, and suspended in freezing medium (95% FBS+5% DMSO). The reporter cells are frozen at 1×10^7/ml concentrations, aliquoted into 0.5 ml or 2.5 ml/tube and stored at −70° C.
The following day, test compounds are added under HTS setup by Plate Track into 384 well plates (white, TC treated, Falcon plate) such that the final concentration of the compounds in 20 μL/well cell will be 5 μg/ml (final concentration of DMSO=0.25% and final compound concentration=20 μM). Vials of frozen reporter cells are thawed by warming the vial in a 37° C. water bath for 60-120 seconds with some shaking until the cells formed a suspension. The thawed cells are transferred into a cold 50 ml (or larger) tube and mixed well by gentle pipetting. The appropriate amount of cold Phenol Red Free RPMI medium-1640 (GIBCO, Cat # 11835-030) with L-glutamine is added, both with ˜5% FBS (GIBCO-BRL, Cat. # 16000-044), so that 20 μl of the final cell suspension will contain ˜5,000 cells. The cell dilution is done such that the final concentration of FBS was ˜5%. Diluted cells (20 μl) are added into each well in a 384 well plate. The plate is incubated at 37° C. under 5% CO2 for ˜20 h. Bright-Glo substrate, 2.5 μl/well is added, and the Fire Fly Luciferase is measured using VLUX (60 second exposure) immediately after the substrate was added. Test compounds are dissolved in DMSO (100%) and added to specified wells. Raw luciferase signal data obtained as relative luminescence units (RLUs) for the test compounds are normalized to the signal of the mean of the sample reporter cell plate with DMSO.
Active compounds have TCF-luciferase ratios of 2.5 fold or greater over DMSO. All compounds show a signal increase of at least 10% compared to a signal with only DMSO added.
A=MAX FOLD Induction/DMSO CONTROL
B=TCF ACTIVITY/DMSO CONTROL Fold induction @ 2.0 uM C=TCF ACTIVITY/DMSO CONTROL Fold induction @ 20.0 uM

SMILES	fold induction at 2 µM	fold induction at 20 µM
Oc1ccc(-c2nc3c(-c4ccc5ccccc5c4)ccnc3n2C2CCNCC2)cc1 [4-[7-(2-naphthyl)-3-piperidin-4-yl-3H-imidazo[4,5-b]pyridin-2-yl]phenol]	1.3	–
CCCCc1nc2c(-c3ccc4ccccc4c3)ccnc2n1C1CCNCC1 [2-butyl-7-(2-naphthyl)-3-piperidin-4-yl-3H-imidazo[4,5-b]pyridine]	1.19	–
FC(F)(F)Oc1ccc(-c2nc3c(-c4ccc5ccccc5c4)ccnc3n2C2CCNCC2)cc1 [7-(2-naphthyl)-3-piperidin-4-yl-2-[4-(trifluoromethoxy)phenyl]-3H-imidazo[4,5-b]pyridine]	1.51	–
c1ccc2cc(-c3cnc4c(c3)nc(-c3cccc5cccnc35)n4C3CCNCC3)ccc2c1 [8-[6-(2-naphthyl)-3-piperidin-4-yl-3H-imidazo[4,5-b]pyridin-2-yl]quinoline]	1.61	–
c1ccc2cc(-c3ccnc4c3ncn4C3CNC3)ccc2c1 [3-azetidin-3-yl-7-(2-naphthyl)-3H-imidazo[4,5-b]pyridine]	1.49	1.25
c1ccc2cc(-c3ccnc4c3nc(-c3ncc[nH]3)n4C3CCNCC3)ccc2c1 [2-(1H-imidazol-2-yl)-7-(2-naphthyl)-3-piperidin-4-yl-3H-imidazo[4,5-b]pyridine]	1.42	–
Clc1cccc(-c2nc3c(-c4ccc5ccccc5c4)ccnc3n2C2CCNCC2)c1 [2-(3-chlorophenyl)-7-(2-naphthyl)-3-piperidin-4-yl-3H-imidazo[4,5-b]pyridine]	1.5	–
Clc1cncc(Cl)c1-c1nc2c(-c3ccc4ccccc4c3)ccnc2n1C1CCNCC1 [2-(3,5-dichloropyridin-4-yl)-7-(2-naphthyl)-3-piperidin-4-yl-3H-imidazo[4,5-b]pyridine]	1.95	0.29
Cn1ccnc1-c1nc2c(-c3ccc4ccccc4c3)ccnc2n1C1CCNCC1 [2-(1-methyl-1H-imidazol-2-yl)-7-(2-naphthyl)-3-piperidin-4-yl-3H-imidazo[4,5-b]pyridine]	1.84	–
FC(F)(F)Oc1cccc(-c2nc3c(-c4ccc5ccccc5c4)ccnc3n2C2CCNCC2)c1 [7-(2-naphthyl)-3-piperidin-4-yl-2-[3-(trifluoromethoxy)phenyl]-3H-imidazo[4,5-b]pyridine]	1.52	–
O=[N+]([O-])c1cc(-c2nc3c(-c4ccc5ccccc5c4)ccnc3n2C2CCNCC2)ccc1N1CCOCC1 [2-(4-morpholin-4-yl-3-nitrophenyl)-7-(2-naphthyl)-3-piperidin-4-yl-3H-imidazo[4,5-b]pyridine]	1.44	0.06
Cc1ccc2[nH]cc(-c3nc4c(-c5ccc6ccccc6c5)ccnc4n3C3CCNCC3)c2c1 [2-(5-methyl-1H-indol-3-yl)-7-(2-naphthyl)-3-piperidin-4-yl-3H-imidazo[4,5-b]pyridine]	1.92	–
CCCc1nc2cc(-c3ccc4ccccc4c3)cnc2n1C1CCNCC1 [6-(2-naphthyl)-3-piperidin-4-yl-2-propyl-3H-imidazo[4,5-b]pyridine]	1.38	0.01
Cn1c(=O)n(C2CCN(S(C)(=O)=O)CC2)c2nccc(-c3ccc4ccccc4c3)c21 [1-methyl-3-[1-(methylsulfonyl)piperidin-4-yl]-7-(2-naphthyl)-1,3-dihydro-2H-imidazo[4,5-b]pyridin-2-one]	1.52	0.97
CC(C)(C)c1ccc(-c2nc3cc(-c4ccc5ccccc5c4)cnc3n2C2CCNCC2)cc1 [2-(4-tert-butylphenyl)-6-(2-naphthyl)-3-piperidin-4-yl-3H-imidazo[4,5-b]pyridine]	1.13	–
c1ccc2cc(-c3ccnc4c3nc(-c3cc5ccccc5o3)n4C3CCNCC3)ccc2c1 [2-(1-benzofuran-2-yl)-7-(2-naphthyl)-3-piperidin-4-yl-3H-imidazo[4,5-b]pyridine]	1.53	0.01
c1c[nH]c(-c2nc3c(-c4ccc5ccccc5c4)ccnc3n2C2CCNCC2)c1 [7-(2-naphthyl)-3-piperidin-4-yl-2-(1H-pyrrol-2-yl)-3H-imidazo[4,5-b]pyridine]	1.25	–

SMILES	fold induction at 2 µM	fold induction at 20 µM
Cc1cc(-c2nc3c(-c4ccc5ccccc5c4)ccnc3n2C2CCNCC2)oc1C [2-(4,5-dimethyl-2-furyl)-7-(2-naphthyl)-3-piperidin-4-yl-3H-imidazo[4,5-b]pyridine]	1.54	–
Cc1ccc(-c2nc3cc(-c4ccc5ccccc5c4)cnc3n2C2CCNCC2)o1 [2-(5-methyl-2-furyl)-6-(2-naphthyl)-3-piperidin-4-yl-3H-imidazo[4,5-b]pyridine]	1.23	–
Cc1ccc(-c2nc3cc(-c4ccc5ccccc5c4)cnc3n2C2CCNCC2)cc1 [2-(4-methylphenyl)-6-(2-naphthyl)-3-piperidin-4-yl-3H-imidazo[4,5-b]pyridine]	1	–
Cn1cc(-c2nc3cc(-c4ccc5ccccc5c4)cnc3n2C2CCNCC2)c2ccccc21 [2-(1-methyl-1H-indol-3-yl)-6-(2-naphthyl)-3-piperidin-4-yl-3H-imidazo[4,5-b]pyridine]	1.04	–
Brc1cccc(-c2nc3c(-c4ccc5ccccc5c4)ccnc3n2C2CCNCC2)c1 [2-(3-bromophenyl)-7-(2-naphthyl)-3-piperidin-4-yl-3H-imidazo[4,5-b]pyridine]	1.52	–
Clc1ccc(-c2nc3c(-c4ccc5ccccc5c4)ccnc3n2C2CCNCC2)c(Cl)c1 [2-(2,4-dichlorophenyl)-7-(2-naphthyl)-3-piperidin-4-yl-3H-imidazo[4,5-b]pyridine]	1.1	–
c1csc(-c2nc3c(-c4ccc5ccccc5c4)ccnc3n2C2CCNCC2)c1 [7-(2-naphthyl)-3-piperidin-4-yl-2-(2-thienyl)-3H-imidazo[4,5-b]pyridine]	1.22	0.04
CC(C)NC(=O)N1CCC(n2c(=O)[nH]c3c(-c4ccc5ccccc5c4)ccnc32)CC1 [N-isopropyl-4-[7-(2-naphthyl)-2-oxo-1,2-dihydro-3H-imidazo[4,5-b]pyridin-3-yl]piperidine-1-carboxamide]	1.42	1.1
Fc1cccc(-c2nc3c(-c4ccc5ccccc5c4)ccnc3n2C2CCNCC2)c1F [2-(2,3-difluorophenyl)-7-(2-naphthyl)-3-piperidin-4-yl-3H-imidazo[4,5-b]pyridine]	1.9	–
CN(C)C(=O)N1CCC(n2c(=O)n(C)c3c(-c4ccc5ccccc5c4)ccnc32)CC1 [N,N-dimethyl-4-[1-methyl-7-(2-naphthyl)-2-oxo-1,2-dihydro-3H-imidazo[4,5-b]pyridin-3-yl]piperidine-1-carboxamide]	1.19	0.35
Cc1cn(-c2ccccc2)c(Cl)c1-c1nc2c(-c3ccc4ccccc4c3)ccnc2n1C1CCNCC1 [2-(2-chloro-4-methyl-1-phenyl-1H-pyrrol-3-yl)-7-(2-naphthyl)-3-piperidin-4-yl-3H-imidazo[4,5-b]pyridine]	1.48	–
O=[N+]([O-])c1ccc(-c2nc3c(-c4ccc5ccccc5c4)ccnc3n2C2CCNCC2)s1 [7-(2-naphthyl)-2-(5-nitro-2-thienyl)-3-piperidin-4-yl-3H-imidazo[4,5-b]pyridine]	1.83	0.01
Cc1cccc(-c2nc3cc(-c4ccc5ccccc5c4)cnc3n2C2CCNCC2)c1 [2-(3-methylphenyl)-6-(2-naphthyl)-3-piperidin-4-yl-3H-imidazo[4,5-b]pyridine]	1.33	–
c1ccc(N(c2ccccc2)c2ccc(-c3nc4c(-c5ccc6ccccc6c5)ccnc4n3C3CCNCC3)cc2)cc1 [4-[7-(2-naphthyl)-3-piperidin-4-yl-3H-imidazo[4,5-b]pyridin-2-yl]-N,N-diphenylaniline]	1.89	–
c1ccc2cc(-c3ccc4ncn(C5CCNCC5)c4n3)ccc2c1 [5-(2-naphthyl)-3-piperidin-4-yl-3H-imidazo[4,5-b]pyridine]	0.32	–
Cc1nc2c(-c3ccc4ccccc4c3)ccnc2n1[C@@H]1CCNC1 [2-methyl-7-(2-naphthyl)-3-[(3R)-pyrrolidin-3-yl]-3H-imidazo[4,5-b]pyridine]	1.44	0.55

— patent publication US20090069319A1, “IMIDAZOPYRIDINE ANALOGS AND THEIR USE AS AGONISTS OF THE WNT-BETA-CATENIN CELLULAR MESSAGING SYSTEM” (Wyeth, priority 2007, published 2009)
